Read-outs that look alike come from different tables or passages of the source.
What was measured:
[1] = type: physicochemical; conditions: rat; for Short-term stability (RSD,%): 4 h; for Post-preparation stability (RSD,%): 24 h; for Long-term stability (RSD,%): 15 days
Description: A 4°C freezer was then used to make and store the stock solution (1 mg/mL). Moreover, 50% methanol was used to dilute 1 μg/mL of the IS working solution. […] Before being analyzed, the entire set of QC samples were kept at −80°C. An examination of stability using QC samples at low, medium, and high doses. Short-term stability was measured by injecting samples after staying 4 h at room temperature (25°C). After preparation, the sample was kept at 4°C for 24 h, and the dosage was injected to ascertain the sample’s stability. To determine long-term stability, samples were frozen at −80°C for 15 days before being injected. By thawing the samples three times in a row at room temperature and a freezer at −20°C, the freeze–thaw stability was ascertained.

[2] = Pharmacokinetics of acteoside and its metabolites in rat plasma after oral acteoside (UPLC-QqQ-MS); type: in vivo, male Sprague–Dawley rats; conditions: for AUC(0-inf) / AUC(0-t) / Tmax / half-life / Cmax / MRT last / MRT inf: male, Sprague-Dawley, rat, plasma, po, 100 mg/kg, metabolite in rat plasma following oral acteoside 100 mg/kg, n = 6; for Cmax: read-out: Cmax; for MRT last: read-out: MRT(0-t); for MRT inf: read-out: MRT(0-∞)
From the text: After a week of acclimatization, rats were split into three groups at random: the wine-processed Cistanche polysaccharide group (WCP group), the unprocessed Cistanche polysaccharide group (UCP group), and the blank control group (Control group). Six rats each group were raised in the same cage for breeding. Prior to the experiment, provide water and regular laboratory meals to the rats at will and fast for one night before the experiment. In order to ensure the continuous intake of Cistanche polysaccharides, it was calculated according to the requirements of the Chinese Pharmacopoeia ([16]) based on the daily dosage of Cistanche for adults, the polysaccharide yield of Cistanche polysaccharides and the equivalent conversion formula of the drug administration between humans and rats ([17]). An appropriate amount of raw Cistanche polysaccharide and Cistanche wine polysaccharide were weighed, dissolved in pure water, and prepared with 15.06 g·kg^-1 administration solution for continuous administration for 21 days. After fasting overnight, on day 22, two fresh fecal samples were collected from each rat, put straight into a sterile tube from the anus, avoiding contact with skin or urine, and stored in a -80°C freezer immediately after freezing with liquid nitrogen for subsequent analysis. For the pharmacokinetics, in a 1.5 mL heparinized centrifuge tube, 0.3 mL of continuous blood collected from the orbital vein was taken from 0 min, 5 min, 10 min, 30 min, 1.0 […], and 36 h following oral administration of acteoside (100 mg/kg) in the three groups. Using a cryo-centrifuge, plasma samples were produced by centrifuging at 800 g for ten minutes at 4°C. After that, plasma samples were gathered and kept for later examination at -80°C. […] Following this,20 μL of genistein (1 μg/mL IS) solution and 600 μL of cold acetonitrile were then included and centrifuged for 5 min, the […] proteins were separated by vortexing for 5 min, and then they were spun down for 15 min at 4°C at 14,000 rpm. The supernatant was gathered and dried at 40°C with a light nitrogen stream. The dried remnant was then immersed in 100 μL of 25% aqueous acetonitrile fluid, and centrifugation was performed again for 10 min at 4°C at 14,000 rpm. Ultimately, the LC-MS/MS system was injected with 2 μL of the liquid for analysis. A 1.7 μm and 2.1 × 100 mm I.D. […] With a column temperature of 30°C, the flow rate was fixed at 0.3 mL/min. In the mass spectrometry analysis, negative ionization mode was performed with the following optimized parameters: capillary voltage, 3.0 kV; desolvation temperature, 400°C. […] Thus, multiple reaction monitoring (MRM) of the acteoside transitions at 623.37 → 161.02 m/z, caffeic acid transitions at 179.01 → 135.03 m/z, hydroxytyrosol transitions at 153.03 → 122.95 m/z, genistein transitions at 269.08 → 132.57 m/z was used for quantification. […] Data were processed using Masslynx workstation data acquisition and qualitative analysis software (4.1, Waters, USA). Using the DAS program (Chinese Pharmacological Society, Beijing, China), pharmacokinetic parameters were estimated.

Q: Which “Freeze–thaw stability (RSD,%)” value ([1]; 25 ng/mL) does the source give for `OCCc1ccc(O)c(O)c1` [Hydroxytyrosol, hydroxytyrosol] here?
A: 7.04%

Q: What about the “Freeze–thaw stability (RSD,%)” value ([1]; 200 ng/mL) of the same molecule?
A: 5.78%

Q: And the “Freeze–thaw stability (RSD,%)” value ([1]; 1000 ng/mL)?
A: 4.24%

Q: And the “Short-term stability (RSD,%)” value ([1]; 25 ng/mL)?
A: 5.34%

Q: What about the “Short-term stability (RSD,%)” value ([1]; 200 ng/mL) of the same molecule?
A: 3.26%

Q: And the “Short-term stability (RSD,%)” value ([1]; 1000 ng/mL)?
A: 2.44%

Q: What about the “Post-preparation stability (RSD,%)” value ([1]; 25 ng/mL) of the same molecule?
A: 6.32%

Q: And the “Post-preparation stability (RSD,%)” value ([1]; 200 ng/mL)?
A: 4.89%

Q: And the “Post-preparation stability (RSD,%)” value ([1]; 1000 ng/mL)?
A: 3.21%

Q: What about the “Long-term stability (RSD,%)” value ([1]; 25 ng/mL) of the same molecule?
A: 7.78%

Q: And the “Long-term stability (RSD,%)” value ([1]; 200 ng/mL)?
A: 5.86%

Q: What about the “Long-term stability (RSD,%)” value ([1]; 1000 ng/mL) of the same molecule?
A: 4.63%

Q: And the AUC(0-inf) ([2]; Control group)?
A: 42.5 ± 4.24 ng·h/mL

Q: And the AUC(0-t) ([2]; Control group)?
A: 40.6 ± 3.24 ng·h/mL

Q: What about the Tmax ([2]; Control group) of the same molecule?
A: 15 min

Q: What about the half-life ([2]; Control group) of the same molecule?
A: 48.8 ± 7.74 min

Q: And the Cmax ([2]; Control group)?
A: 30.3 ± 10.9 ng/mL

Q: What about the MRT last ([2]; Control group) of the same molecule?
A: 1.2 ± 0.132 h

Q: And the MRT inf ([2]; Control group)?
A: 1.38 ± 0.145 h

Q: And the AUC(0-inf) ([2]; UCP group)?
A: 60.5 ± 5.72 ng·h/mL

Q: What about the AUC(0-t) ([2]; UCP group) of the same molecule?
A: 56.5 ± 5.41 ng·h/mL

Q: What about the Tmax ([2]; UCP group) of the same molecule?
A: 15 min

Q: And the half-life ([2]; UCP group)?
A: 54.5 ± 6.36 min

Q: What about the Cmax ([2]; UCP group) of the same molecule?
A: 44.4 ± 14 ng/mL

Q: And the MRT last ([2]; UCP group)?
A: 1.19 ± 0.124 h

Q: And the MRT inf ([2]; UCP group)?
A: 1.46 ± 0.153 h

Q: What about the AUC(0-inf) ([2]; WCP group) of the same molecule?
A: 91.3 ± 6.92 ng·h/mL

Q: And the AUC(0-t) ([2]; WCP group)?
A: 90.6 ± 6.73 ng·h/mL

Q: And the Tmax ([2]; WCP group)?
A: 15 min

Q: What about the half-life ([2]; WCP group) of the same molecule?
A: 32.2 ± 6.96 min

Q: And the Cmax ([2]; WCP group)?
A: 71.4 ± 32 ng/mL

Q: What about the MRT last ([2]; WCP group) of the same molecule?
A: 1.27 ± 0.139 h

Q: And the MRT inf ([2]; WCP group)?
A: 1.54 ± 0.168 h

Q: What about the “Cmax of metabolite, WCP group relative to UCP group” value ([2]; rats, following oral acteoside 100 mg/kg) of the same molecule?
A: 1.61 times
